US20180207249A1, “METHOD AND VACCINE COMPRISING COPOLYMER 1 FOR TREATMENT OF PSYCHIATRIC DISORDERS” (YEDA RESEARCH AND DEVELOPMENT CO. LTD., priority 2003, published 2018)

Columns and labels:
[1] = test system: rats exposed to psychotomimetic drugs; assay: Vaccination after exposure to psychotomimetic drugs; format: in vivo; settings: vaccination after drug exposure, not shown
[2] = test system: mice injected with a psychotomimetic drug; assay: Social behavior test; format: in vivo, mouse; settings: vaccinated mice vs controls; data not shown
[3] = test system: male C57B1/6J mice exposed to the odor of a predator; assay: Behavioral adaptation to psychological stress (predator odor; EPM and ASR cut-off behavioral criteria); format: in vivo, mouse; settings: single 10-min exposure to odor of a predator, PBS/CFA control 40.8%, P<0.05
Procedure: (§1) (iii) Immunization. Each animal was injected with a total of 100 μg of Cop-1 emulsified in an equal volume of complete Freund's adjuvant (CPA) containing 5 mg/ml of Mycobacteria H37 RA (Difco). The emulsion, in a total volume of 0.1 mL, was injected into the flank 1 week before the mouse was first injected with a psychotomimetic drug. Control mice were injected with an equal volume of phosphate-buffered saline (PBS) emulsified in CFA.
(ix) Induction of psychological stress. Mice in the experimental groups were exposed for 10 minutes to thoroughly soiled eat litter (used by a cat for 2 days and sifted for faeces). Control (WT) mice were exposed for the same time to unused litter. […]
Behavior on the EPM was recorded using EthoVision programs (Noldus) that recorded the location of the mouse over the 5-minute test period. […]
Five behavioral parameters were assessed: (1) time spent in the open arms; (2) time spent in the closed arms; (3) number of entries into open arms; (4) number of entries into closed arms; (5) total number of entries into all arms. Mice were recorded as having entered an open or closed arm only when all four paws had passed over the dividing line between open and closed arms. […]
(xi) Acoustic startle response (ASR). […] The ASR and pre-pulse inhibition were measured using two ventilated startle chambers (SR-LAB system, San Diego Instruments, San Diego, Calif.). […]

[4] = test system: C57BL/6J mice injected with MK-801 or AMPH; assay: Morris water maze (MWM) spatial learning/memory task after psychotomimetic drug; format: in vivo, mouse; settings: C57BL/6J mice immunized 1 week before MK-801
Procedure: as §1
(vi) Drug solutions. Fresh solutions of dizocilpine maleate (MK-801; Sigma-Aidrich) were prepared in physiological saline (0.9% NaCl in sterile distilled water) for each batch of mice. Physiological saline was also used as a vehicle for D-amphetamine sulfate (AMPH: Sigma). MK-801. (0.1 mg/kg) or AMPH (2.5 mg/kg) or sahne was injected i.p., in a total volume of 5 ml per kg of body weight. Mice were injected with MK-801, AMPH, or vehicle 15 min before being subjected to behavioral tests.
(vii) Morris water maze (MWM) behavioral test. Spatial learning/memory was assessed by performance on a hippocampal-dependent visuospatial learning task in the MWM. Mice were given four trials per day, for four consecutive days, to find a hidden platform located 1.5 cm below the water surface in a pool 1.4 m in diameter. Within the testing room only distal visuo-spatial cues were available to the mice for location of the submerged platform. The escape latency, i.e., the time required by the mouse to find and climb onto the platform, was recorded for up to 60 s. Each mouse was allowed to remain on the platform for 30 s, and was then moved from the maze to its home cage. […] The inter-trial interval was 30 s. On day 5, the platform was removed from the pool, and each mouse was tested by a probe trial for 60 s. On days 6-7 the platform was placed at the opposite, location, and the mouse was retrained in four sessions. Data were recorded by using an EthoVision automated tracking system (Noldus Information Technology, Wageningen, The Netherlands). […]

Q: What does the source list for Copolymer 1 [Cop-1]?
A: Effect of vaccination given after psychotomimetic drugs [1]: beneficial; Communicative behavior in social behavior test [2]: better communicative behavior than the controls; Prevalence of maladaptation (behavioral changes) after predator odor [3]: 14.8%; MWM extinction phase, time spent in training quadrant after MK-801 [4]: behaved similarly to WT mice
